The results in this text go back to US20260284009A1, “COMPOUNDS FOR NOS-RELATED CANCERS AND METHODS OF USE” (YISSUM RESEARCH DEVELOPMENT COMPANY OF THE HEBREW …, priority 2023, published 2026).

SMILES strings stand for the structures.

Assay [1] relates to SH-SY5Y cells. Put plainly: Nitrite levels (marker of NO levels) by Griess assay in SH-SY5Y cells. The assay is classed as cell-based, human. The note with it: 100 μM 7-NI or 20 nM siRNA (SEQ ID NO: 4), n=3. On the procedure: (§1) In FIGS. 2A-2C, for quantitative analysis absorbance at 585 nm was normalized for total protein. Data are expressed as the mean±SEM. Statistical significance was determined using a One-way ANOVA followed by Fisher's LSD multiple comparison post hoc test. *P<0.05 and **P<0.01.
FIG. 2B: Quantitative analysis of nitrite levels (a marker of NO levels) measured by Griess assay for SH-SY5Y cells following administration of the control (“SH-SY5Y”) (n=3), 0.1% DMSO (“SH-SY5Y+NC”) (n=3), 100 μM 7-NI (“SH-SY5Y+7-NI”) (n=3), 20 nM siRNA (SEQ ID NO: 4) (“SH-SY5Y+si-nNOS”) (n=3).
On the technique in general: Griess reagent forms a coloured azo dye with nitrite.

Assay [2] deals with SH-SY5Y cells. Nature of the assay: Immunofluorescent staining of Syp and 3-Ntyr in SH-SY5Y cells. It is filed as cell-based, human. The note with it: immunofluorescence, 100 μM 7-NI or 20 nM siRNA. Here is the method: In FIGS. 5A-5C, for quantitative analysis each group consisted of three independent sets of experiments run in triplicate. Data are presented as mean±SEM. Statistical significance was determined using a One-way ANOVA followed by Fisher's LSD multiple comparison post hoc test. **P<0.01 and ***P<0.001.
FIG. 5A: Representative immunofluorescent images of SH-SY5Y cells stained for Syp and 3-Ntyr following administration of the control (“SH-SY5Y”), 100 μM 7-NI (“SH-SY5Y+7-NI”), or 20 nM siRNA (SEQ ID NO: 4) (“SH-SY5Y+si-nNOS”). The scale bar is 10 μm.
FIG. 5B: Quantitative analysis of fluorescent intensity of Syp for the experiments of FIG. 5A.
FIG. 5C: Quantitative analysis of fluorescent intensity of 3-Ntyr for the experiments of FIG. 5A.

Assay [3] has as its system SH-SY5Y cells. Nature of the assay: NADPH-diaphorase activity in cell lysates of SH-SY5Y cells. The assay is classed as cell-based, human. The note with it: 100 μM 7-NI or 20 nM siRNA (SEQ ID NO: 4), absorbance at 585 nm normalized for total protein, n=3. Here is the method: as §1
FIG. 2A: Quantitative analysis of NADPH-diaphorase activity in cell lysates of SH-SY5Y cells following the administration of the control (“SH-SY5Y”) (n=3), 0.1% DMSO (“SH-SY5Y+NC”) (n=3), 100 μM 7-NI (“SH-SY5Y+7-NI”) (n=3), or 20 nM siRNA (SEQ ID NO: 4) (“SH-SY5Y+si-nNOS”) (n=3).
FIG. 2C: Representative images of cultured SH-SY5Y cells stained for NADPH-diaphorase activity.

The subject of assay [4] is U87-MG cells. Put plainly: Western blot of U87-MG cells (3-Ntyr, CD70, iNOS, nNOS). It is filed as cell-based, human. The note with it: vs control and vehicle. On the procedure: Human glioblastoma U87-MG cells were obtained from the American Type Culture Collection (ATCC) and maintained in Dulbecco's modified Eagle's Medium (DMEM) and Ham's F-12 (1:1) supplemented with 10% fetal bovine serum, 2 mM L-glutamine, and 100 U/ml penicillin-G/[…] streptomycin in the humidified atmosphere (37° C., 5% CO2). Cells were plated onto 25 cm^2 and 75 cm^2 at a density of […] respectively for Western blotting (WB) and 1×10^5 for immunofluorescence. The U87-MG cells were treated with 100 μM 7-nitroindazole (7-NI) for 24 hr. This concentration was confirmed in the dose-response experiment (FIG. 7) using an MTT viability assay.
Cells were lysed in ice-cold RIPA buffer containing 50 mM Tris-HCl, 1% Nonidet P-40, 0.25% sodium deoxycholate, 150 mM NaCl, protease-, and phosphatase inhibitor cocktails, pH 7.4. After sonication, the lysates were centrifuged at 17,000 g for 30 min at 4° C., and the supernatant was collected. The protein concentrations were determined with the BCA protein assay. Proteins were resolved by SDS-PAGE, transferred to a PVDF membrane, and probed with the following antibodies: anti-CD70 (rabbit, diluted 1:1000), and anti-3-Nitrotyrosine (rabbit, diluted 1:5000) from Abcam. All primary antibodies, except anti-3-Nitrotyrosine, were purchased from Cell Signaling Technology. The blots were then visualized using an enhanced chemiluminescence (ECL) system.

Assay [5] concerns SH-SY5Y cells. Put plainly: Clonogenic survival of SH-SY5Y cells. It is filed as cell-based, human. The note with it: 100 μM 7-NI or 20 nM siRNA (SEQ ID NO: 4), n=4. Here is the method: In FIGS. 3A-3B, for quantitative analysis data, all individual data series are presented as biological replicates (n=4) for all groups. Data are presented as mean±SEM. Statistical significance was determined using a One-way ANOVA followed by Fisher's LSD multiple comparison post hoc test. *P<0.05, **P<0.01, and ns=not significant.
FIG. 3A: Representative well images of clonogenic growth following administration of the control (“SH-SY5Y”), 0.1% DMSO (“SH-SY5Y+NC”), 100 μM 7-NI (“SH-SY5Y+7-NI”), or 20 nM siRNA (SEQ ID NO: 4) (“SH-SY5Y+si-nNOS”).
FIG. 3B: Quantitative analysis of clonogenic survival for the experiments of FIG. 3A.

The test system of assay [6] is U87-MG cells. Put plainly: Nitrate and nitrite levels in U87-MG cells. The note with it: 100 μM 7-NI, 500 or 1000 μM L-NIL, combinations of both, n=3. It is filed as cell-based, human. On the procedure:
In FIGS. 10A-10B, data are presented as mean±SEM. Statistical significance was determined using a One-way ANOVA with Bonferroni's multiple comparisons tests. *P<0.05, **P<0.01, and ns=not significant.
FIG. 10A: Quantitative analysis of nitrate and nitrite levels in U87-MG cells following administration of 0.1% DMSO (“Vehicle”) (n=3) or 100 μM 7-NI (“7-NI”) (n=3).
FIG. 10B: Quantitative analysis of nitrate and nitrite levels in U87-MG cells following administration of control (n=3), 500 μM L-NIL (“L-NIL 500”) (n=3), or 1000 μM L-NIL (“L-NIL 1000”) (n=3).
Data are expressed as the mean±SEM.

A further assay concerns U87-MG-xenografted mice. Put plainly: Tumor growth in U87-MG-xenografted mice. The assay is classed as in vivo. The note with it: 10 mg/kg, compared to the vehicle (FIGS. 16-17). Here is the method: In a particular example, in vitro and in vivo experiments were performed using U87-MG cells and U87-MG-xenografted mice, respectively, as a glioblastoma model.
Setting [7] is: 7-NI, not statistically significantly.

Take `O=[N+]([O-])c1cccc2cn[nH]c12` [7-NI, 7-nitroindazole]: the “nitrite levels (a marker of NO levels)” value in the assay with SH-SY5Y cells [1] is reported as “significant decrease”. In addition, in the assay on SH-SY5Y cells [2], the “3-Ntyr expression levels (fluorescent intensity)” value is “significant decrease” and the “Syp expression levels (fluorescent intensity)” value is recorded as “significant decrease”. Also, in the assay with SH-SY5Y cells [3], the NADPH-diaphorase activity result is “significant decrease”. Also, the 3-Ntyr levels result with U87-MG cells [4] (100 μM 7-NI, 24 hr) is on record as “significantly reduced”. The “expression level of iNOS” value with U87-MG cells [4] (7-NI) was “unchanged”. For the same molecule, in the assay on U87-MG cells [4] (setting [7]), the “expression level of CD70” value is reported as “slightly decreased” and the “expression level of nNOS” value is recorded as “slightly decreased”. In addition, the clonogenic survival result with SH-SY5Y cells [5] was “significant decrease”. The “nitrate and nitrite levels” value in the assay with U87-MG cells [6] was “significant decrease”.

Consider `CC(=N)NCCCC[C@H](N)C(=O)O` [L-NIL, N^6-(1-iminoethyl)-L-lysine], for which the average tumor size result in the assay with U87-MG-xenografted mice is listed as “significantly smaller”. In addition, the “nitrate and nitrite levels” value with U87-MG cells [6] is “significant decrease”.
